Assay results from ChEMBL document CHEMBL1150950, “Antimicrobial activity of 8-alkyl- and 8-phenyl-substituted berberines and their 12-bromo derivatives” (1998).

What was measured:
[1] = test system: Candida albicans; test: Antifungal activity against Candida albicans IFO 1061 after 48 hrs by serial broth dilution test; assay type: functional; settings: IFO 1061, 48 h
[2] = test system: Staphylococcus aureus; test: Antibacterial activity against Staphylococcus aureus after 24 hrs by serial broth dilution test; assay type: functional
[3] = test system: Salmonella enteritidis; test: Antibacterial activity against Salmonella enteritidis after 24 hrs by serial broth dilution test; assay type: functional, Salmonella enterica subsp. enterica serovar Enteritidis; settings: Salmonella enterica
[4] = test system: Bacillus subtilis; test: Antibacterial activity against Bacillus subtilis after 24 hrs by serial broth dilution test; assay type: functional
[5] = test system: Escherichia coli; test: Antibacterial activity against Escherichia coli IFO 026 after 24 hrs by serial broth dilution test; assay type: functional; settings: IFO 026, 24 h

| Compound | MIC [1] [µg/mL] | MIC [2] [µg/mL] | MIC [3] [µg/mL] | MIC [4] [µg/mL] | MIC [5] [µg/mL] |
| --- | --- | --- | --- | --- | --- |
| CCCc1c2c(OC)c(OC)ccc2cc2[n+]1CCc1cc3c(cc1-2)OCO3.[Cl-] | 250 | 31.2 | 31.2 | 62.5 | 500 |
| COc1ccc2cc3[n+](cc2c1OC)CCc1cc2c(cc1-3)OCO2.[Cl-] [BERBERINE CHLORIDE] | 500 | 250 | 500 | 1000 | > 2000 |
| CCCCCCc1c2c(OC)c(OC)cc(Br)c2cc2[n+]1CCc1cc3c(cc1-2)OCO3.[Cl-] | 15.6 | 3.9 | 3.9 | 3.9 | 125 |
| CCc1c2c(OC)c(OC)cc(Br)c2cc2[n+]1CCc1cc3c(cc1-2)OCO3.[Cl-] | 250 | 31.2 | 31.2 | 31.2 | 500 |
| NC[C@H]1O[C@H](O[C@H]2[C@H](O)[C@@H](O[C@H]3O[C@H](CO)[C@@H](O)[C@H](N)[C@H]3O)[C@H](N)C[C@@H]2N)[C@H](O)[C@@H](O)[C@@H]1O.O=S(=O)(O)O [KANAMYCIN SULFATE] | > 2000 | 31.2 | 62.5 | 3.9 | 31.2 |
| CCCCc1c2c(OC)c(OC)ccc2cc2[n+]1CCc1cc3c(cc1-2)OCO3.[Cl-] | 250 | 15.6 | 31.2 | 31.2 | 500 |
| COc1cc(Br)c2cc3[n+](cc2c1OC)CCc1cc2c(cc1-3)OCO2.[Cl-] | 500 | 125 | 125 | 125 | > 500 |
| CCCCc1c2c(OC)c(OC)cc(Br)c2cc2[n+]1CCc1cc3c(cc1-2)OCO3.[Cl-] | 62.5 | 7.8 | 15.6 | 7.8 | 250 |
| COc1ccc2cc3[n+](c(-c4ccccc4)c2c1OC)CCc1cc2c(cc1-3)OCO2.[Cl-] | 250 | 62.5 | 125 | 62.5 | > 500 |
| CCCc1c2c(OC)c(OC)cc(Br)c2cc2[n+]1CCc1cc3c(cc1-2)OCO3.[Cl-] | 125 | 15.6 | 15.6 | 15.6 | 500 |
| COc1ccc2cc3[n+](c(C)c2c1OC)CCc1cc2c(cc1-3)OCO2.[Cl-] | 250 | 125 | 125 | 250 | > 500 |
| COc1cc(Br)c2cc3[n+](c(-c4ccccc4)c2c1OC)CCc1cc2c(cc1-3)OCO2.[Cl-] | 250 | 31.2 | 31.2 | 31.2 | 500 |
| CCc1c2c(OC)c(OC)ccc2cc2[n+]1CCc1cc3c(cc1-2)OCO3.[Cl-] | 125 | 62.5 | 62.5 | 125 | > 500 |
